This passage reports Activity and IC50 results from ChEMBL document CHEMBL1148165, “A novel amino acid glycoside and three amino acids from Allium sativum” (J Nat Prod, 1993).

The structures appear in SMILES notation. pIC50: −log10 of the molar value. Activity calls are given as the source filed them. No cut-off for these calls is given here.

The test system of one assay is Penicillium oxalicum. As to the kind of experiment: Antimicrobial activity against Penicillium oxalicum CBS 219.30 at 25 ug. The assay is classed as functional, organism-based.
A further assay relates to Bacillus subtilis. Kind of assay: Antimicrobial activity against Bacillus subtilis ATCC 6633 at 25 ug. It is filed as functional, organism-based.
For the next assay, the system named is Micrococcus luteus. As to the kind of experiment: Antimicrobial activity against Micrococcus luteus ATCC 9341 at 25 ug. The assay is classed as functional, organism-based.
For another assay, the system named is Escherichia coli. As to the kind of experiment: Antimicrobial activity against Escherichia coli ATCC 25922 at 25 ug. The assay is classed as functional, organism-based.
Assay [1] concerns Platelet. Kind of assay: Inhibition of ADP-induced platelet aggregation in human platelet-rich plasma at 1 mM by turbidimetric method. More on the design: Activity: scale not given: the % may be the effect or the level left. The assay is classed as functional.
For assay [2], the system named is Platelet. As to the kind of experiment: Inhibition of collagen-induced platelet aggregation in human platelet-rich plasma at 1 mM by turbidimetric method. It is filed as functional. Also on record: Activity: scale not given: the % may be the effect or the level left.
For assay [3], the system named is Platelet. Kind of assay: Inhibition of epinephrine-induced platelet aggregation in human platelet-rich plasma at 1 mM by turbidimetric method. The assay is classed as functional. More on the design: scale not given: the % may be the effect or the level left.
Assay [4] relates to Platelet. As to the kind of experiment: Inhibition of collagen-induced platelet aggregation in human platelet-rich plasma assessed as increase in lag time at 1 mM by turbidimetric method. The assay is classed as functional. Also on record: scale not given: the % may be the effect or the level left.

Regarding `C/C=C/[S+]([O-])C[C@H](N)C(=O)O` (some centres not stated), the result in the assay with Penicillium oxalicum, with Bacillus subtilis, in the assay with Micrococcus luteus and with Escherichia coli was inactive.
As for `C[S+]([O-])C[C@H](N)C(=O)O` (some centres not stated), the outcome in the assay on Penicillium oxalicum, in the assay on Bacillus subtilis, in the assay with Micrococcus luteus and with Escherichia coli was inactive.
As a reminder, the pIC50 is the negative decadic logarithm of the IC50, by convention in mol/L. Take `C=CC[S+]([O-])C[C@H](N)C(=O)O` (some centres not stated) [ALLIIN]: the result in the assay on Penicillium oxalicum, with Bacillus subtilis, in the assay with Micrococcus luteus and in the assay on Escherichia coli was inactive. For the same molecule, the negative-log IC50 (pIC50) is 4.22 with Platelet [1] (Homo sapiens, Platelet, Plasma) and 4.22 in the assay with Platelet [2] (Homo sapiens, Platelet, Plasma).
Consider `C=CC[S+]([O-])C[C@H](NC[C@@]1(O)OC[C@@H](O)[C@@H](O)[C@@H]1O)C(=O)O` (some centres not stated), for which the outcome with Penicillium oxalicum, in the assay with Bacillus subtilis, in the assay with Micrococcus luteus and in the assay with Escherichia coli was inactive. For the same molecule, the Activity in the assay with Platelet [3] came to 40.2%; with Platelet [1], 39.2%; in the assay on Platelet [2], 82%; in the assay on Platelet [4], 50%.
